Series [1] has as its system in vitro blood–brain barrier model (primary rat brain endothelial cells and pericytes on Transwell filters, glial-conditioned media). The experiment in a line: Permeability assay through the in vitro BBB model. Format: in vitro ADME. To be noted: for Papp% (permeability coefficient compared to sodium-fluorescein) / Papp % (permeability coefficient compared to KYNA): 10 µM in top compartment; for Papp% (permeability coefficient compared to sodium-fluorescein): N = 2, relative to sodium-fluorescein; for Permeability compared to other analogues: p < 0.05; for BBB penetration compared to the other derivatives tested: conclusion; for Papp % (permeability coefficient compared to KYNA): N = 3, relative to KYNA; for Differences among permeability of KYNA, xanthurenic acid and 39B: 30 and 60 min. On the procedure: Primary rat brain endothelial cells (RBECs) were isolated from 2-week old rats. Animals were sacrificed by cervical dislocation. Briefly, after removal of meninges, cerebral cortices were cut into small pieces and digested in two steps with 1 mg/mL collagenase type 2 and 1 mg/mL collagenase/dispase, followed by centrifugation on a percoll gradient (all from Sigma-Aldrich, St. Louis, MO, USA). Isolated microvessels were plated on fibronectin/collagen-coated dishes. Endothelial cells growing out of the microvessels were cultured in DMEM/F12 (Thermo Fisher Scientific, Waltham, MA, USA), 10% plasma-derived serum (PDS, First Link UK Ltd, Birmingham, UK) and growth factors. In the first two days, 4 µg/mL puromycin (Sigma-Aldrich) was added to remove contaminating cells. Cells were frozen in liquid nitrogen and passage 1 cells were further used. Rat brain pericytes were obtained from cerebral microvessels plated onto rat-tail collagen-coated dishes in PM medium (ScienCell, Carlsbad, CA, USA) complemented with 5% fetal bovine serum (FBS) and penicillin/streptomycin. Cells were split into new dishes, frozen in liquid nitrogen and passage 4 cells were further used. Glial cultures (>90% astrocytes) were prepared from newborn rats and cultured on poly-L-lysine-coated surfaces in DMEM (Thermo Fisher Scientific) and 10% FBS (Thermo Fisher Scientific). After reaching confluence, conditioned media was collected twice a week, centrifuged, sterile filtered and kept at −20 °C.
Pericytes were plated onto the backside of 12-well semipermeable filters (Corning-Costar Transwell Clear; pore size: 0.4 μm; 1.5 × 10^4 cells/filter). The next day, RBECs were plated onto the upper surface of the filters. […] TEER was followed until reaching plateau of 150–250 Ohm × cm^2.
Transwell filters containing endothelial cells and pericytes were removed from the CellZscope instrument. Filters were washed with Ringer-HEPES solution (pH = 7.4). […] The bottom compartment was loaded with Ringer-HEPES. Filters were placed to 37 °C and gentle shaking (110 rpm) was applied. Samples were taken from the basolateral side after 30 and 60 min. The concentrations of the samples were quantitated as described below and apparent permeability was calculated using the formula: Papp = dQ/(dT × A × C0), where dQ is the transported amount, dT is the incubation time, A is the surface of filter (1.12 cm^2), and C0 is the initial concentration. Statistical analysis was performed with ANOVA and Bonferroni’s post-hoc test.
The concentrations of the samples were quantitated with an Agilent 1100 HPLC system (Agilent Technologies, Santa Clara, CA, USA), consisting of a binary pump, a micro vacuum degasser, a thermostated column compartment, an automatic liquid sampler, a MS detector (LCMSD VL), and ChemStation data managing software. Chromatographic separations with the HPLC-MS system were performed on a Kinetex C18 column, 100 × 4.6 mm 2.6 μm particle size (Phenomenex, Torrance, CA, USA) with a mobile phase composition of 0.05% aqueous HCOOH/ACN = 90/10 (v/v), applying isocratic elution. The flow rate and the injection volume were 1 mL/min and 20 µL, respectively. The mass spectrometer was used in positive electrospray ionization mode. The drying gas temperature, drying gas flow rate, nebulizer pressure and capillary voltage were 350 °C, 13 L/min, 60 psi and 3500 V, respectively. […]

For series [2], the system named is human lymphoma U-937 cells. More on the design: method as in PMID 31316502. To be noted: U-937 cells infected with Staphylococcus aureus; cited from earlier work.
In a further series the test system is hippocampus. More on the design: method as in PMID 22231843. As to conditions: systemic administration; cited from earlier work.
For series [3], the system named is PACAP mRNA expression in nucleus trigeminalis caudalis. The arrangement: method as in PMID 29387039. As to conditions: animal model of migraine; cited from earlier work.
Another series deals with MAPK and NFκB. As to conditions: intraperitoneally administered; cited from earlier work.
Series [4] concerns c-fos and glutamate in NTC neurons. More on the design: method as in PMID 28337634. As to conditions: systematic injection; cited from earlier work.
In another series the test system is NTC. The arrangement: method as in PMID 27919017. To be noted: cited from earlier work.
For series [5], the system named is transgenic mouse model of HD. The arrangement: method as in PMID 21194001. To be noted: cited from earlier work.

As to `CN(C)CCNC(=O)c1nc2ccccc2c(O)c1CN1CCCC1` [SZR-106], the “Papp% (permeability coefficient compared to sodium-fluorescein)” value (“Papp%” below) in series [1] (60 min) amounted to 230%.

As for `CN(C)CCNC(=O)c1nc2ccccc2c(O)c1CN1CCCCC1` [SZR-100], the “Papp%” value in series [1] (60 min) was determined as 177%.

`O=C(NCCN1CCCC1)c1nc2ccccc2c(O)c1CN1CCOCC1` [SZR-105]: the “Papp%” value in series [1] (60 min) is listed as 319%. Besides, in series [1] (10 µM, 60 min), the “Permeability compared to other analogues” value is “significantly higher”. Besides, the “BBB penetration compared to the other derivatives tested” value in series [1] was “high BBB penetration”. In series [2], the TNF-α production entry is given as “reduced” and the “mRNA expression of TSG-6” value was “increased”.

For `O=C(O)c1[nH]c2c(O)cccc2c(=O)c1CN1CCOCC1` [39B, 8-Hydroxy-3-(Morpholinomethyl)-4-Oxo-1,4-Dihydroquinoline-2-Carboxylic Acid], the entries for the “Papp % (permeability coefficient compared to KYNA)” value (“Papp %” below) in series [1] (30 min) and in series [1] (60 min) were 54% and 74%, respectively. The “Differences among permeability of KYNA, xanthurenic acid and 39B” value (“Differences among permeability of KYNA” below) in series [1] (10 µM) was “not statistically significant”.

For the compound `O=C(NCCN1CCCC1)c1nc2ccccc2c(O)c1CN1CCCC1` [SZR-107], the “Papp%” value in series [1] (60 min) is listed as 156%.

With `CN(C)CCNC(=O)c1nc2ccccc2c(O)c1CN1CCOCC1` [SZR-104, N-(2-(dimethylamino)ethyl)-3-(morpholinomethyl)-4-hydroxyquinoline-2-carboxamide], the “Papp %” value in series [1] (30 min) amounted to 210%. Also, in series [1] (60 min), the “Papp%” value is 325% and the “Papp %” value came to 222%. For the same compound, the “Permeability compared to other analogues” value in series [1] (10 µM, 60 min) was “significantly higher”. For the same compound, the “Permeability compared to KYNA, xanthurenic acid or 39B” value in series [1] (10 µM, both at 30 min and 60 min, p < 0.01) is on record as “significantly higher permeability”. Moreover, in series [1], the “BBB penetration compared to the other derivatives tested” value is “high BBB penetration”. In addition, in series [2], the TNF-α production result was “reduced” and the “mRNA expression of TSG-6” value was “increased”. For the same compound, in the series with hippocampus, the “Population spike activity in the hippocampus” value is on record as “decreased” and the “Protection against pentylenetetrazol-induced epileptiform seizures” value is “provided protection”.

With `O=C(O)c1cc(O)c2cccc(O)c2n1` [xanthurenic acid], the “Papp %” value in series [1] (30 min) stood at 110%; in series [1] (60 min) it was 89%. Further, in series [1] (10 µM), the “Differences among permeability of KYNA” value was “not statistically significant”.

Take `CN(C)CCNC(=O)c1cc(=O)c2ccccc2[nH]1` [SZR-72, N-(2-N,N-dimethylaminoethyl)-4-oxo-1H-quinoline-2-carboxamide]: the “Electrical TRG stimulation-induced PACAP mRNA expression in NTC” value in series [3] is “decreased”. Also, the “Overexpression of MAPK and NFκB” value in the series on MAPK and NFκB is listed as “reduced”. The “Elevated levels of c-fos and glutamate in NTC neurons” value in series [4] is “abolished”. For the same compound, in the series on NTC, the “Nitroglycerin-induced neuronal activation in NTC (antihyperalgesic effect)” value is “attenuating”. In series [5], the “Atrophy of the striatal neurons” value is given as “completely prevented”, the Hypolocomotion result is “ameliorated” and the Lifetime of mice entry was “prolonged”.

For the compound `O=C(NCCN1CCCC1)c1nc2ccccc2c(O)c1CN1CCCCC1` [SZR-101], the “Papp%” value in series [1] (60 min) came to 131%.

As for `O=C(O)c1cc(=O)c2ccccc2[nH]1` [KYNA, kynurenic acid], the “Papp %” value in series [1] (30 min) and in series [1] (60 min) was 100% throughout. Also, in series [1] (10 µM), the “Differences among permeability of KYNA” value was “not statistically significant”. Besides, in series [3], the “Electrical TRG stimulation-induced PACAP mRNA expression in NTC” value is “decreased”. Further, in the series with MAPK and NFκB, the “Overexpression of MAPK and NFκB” value is listed as “reduced”. Moreover, the “Elevated levels of c-fos and glutamate in NTC neurons” value in series [4] was “abolished”. Also, the “Nitroglycerin-induced neuronal activation in NTC (antihyperalgesic effect)” value in the series with NTC is given as “attenuating”.

(Values after paper PMC7824826, “SZR-104, a Novel Kynurenic Acid Analogue with High Permeability through the Blood–Brain Barrier” (Pharmaceutics, 2021).)
